The values below come from patent publication US8765755B2, “N-containing heterocyclic compounds” (YM Biosciences Australia Pty Ltd, priority 2007, dated 2014).

One test concerns the target T1, human JAK2 (Homo sapiens, UniProt O60674).
T1 construct: The kinase domain of human JAK2 was amplified; GST (N); made in house; host or cells: Sf9 (Spodoptera frugiperda) insect cells, baculovirus
The experiment in a line: JAK2 kinase enzyme assay (Alphascreen). In kind it is biochemical. To be noted: 80 or 625 um ATP. Here is the method: (§1) For screening purposes, compounds (in 100% DMSO) were warmed at 37 degrees for at least 20 minutes before use. A […] stock was initially made in assay buffer, where the final concentration of DMSO was 0.3%. The stocks were then diluted in 384 well Optiplates (Packard) where the final concentration of the compound was 5 μM.
The kinase domain of human JAK2 was amplified from U937mRNA using the polymerase chain reaction with the following primers: […]
The JAK2 PCR products were cloned into the pDest20 destination vector (Gibco). The JAK2 plasmid was then transformed into competent DH10Bac cells (Gibco), and the recombinant baculovirus was prepared via Sf9 insect cell transfection.
(§2) Baculovirus preparations from each of the JAK family members were infected into one litre of Sf9 (Spodoptera frugiperda) cells (Invitrogen) grown in SF900II serum free medium (Invitrogen) to a cell density of approximately 2×10^6 cells/ml. Cells were infected with virus at a cell culture to virus stock ratio of 20:1. Cells were harvested and lysed 48 hours post infection. The GST-tagged JAK kinase domains were purified by affinity chromatography on a GSH agarose column (Scientifix).
(§3) Kinase assays were performed in 384 well Optiplates (Packard) using an Alphascreen Protein Tyrosine KinaseP100 detection kit The compounds were pre-incubated with affinity purified PTK domain in the presence of phosphotyrosine assay buffer (10 mM HEPES, pH 7.5, 100 mM MgCl2, 25 mM NaCl, 200 mM sodium vanadate and 0.1% Tween 20) for 20 minutes. The compounds were then incubated with substrate in the presence of either 80 or 625 um ATP for 60 or 90 minutes. The substrate used was either susbtrate-1 with the sequence biotin-EGPWLEEEEEAYGWMDF-NH2 [SEQ. ID. NO. 13] (final concentration 111 μM) or susbtrate-2 substrate with the sequence biotin-EQEDEPEGDYFEWLEPE (final concentration 133 μM). Alphascreen phosphotyrosine acceptor beads followed by streptavidin donor beads at a concentration of 1/100 in stop buffer were added to each well under subdued light and incubated for 2-3 hours. The Alphascreen plates were read on a Packard Fusion Alpha instrument.
On the technique in general: Bead proximity is the source of the signal in Alpha formats.

A further test has as its system BafT_J2. As to the kind of experiment: Cellular screening, BaF3 TEL:JAK2 cells (Alamar Blue). It is filed as cell-based. The note with it: Mus musculus, 40 hr incubation. Here is the method:
(§4) For screening purposes, compounds were diluted in 96 well plates at a concentration of 20 μM. Plates were warmed at 37° C. for 30 minutes before the assay was performed.
(§5) The coding region encompassing nucleotides 1-487 of TEL was amplified by PCR using the oligonucleotides 5TEL (5′-GGAGGATCCTGATCTCTCTCGCTGTGAGAC-3′) [SEQ ID NO 14] and 3TEL (5′-AGGC GTCGACTTCTTCTTCATGGTTCTG-3′) [SEQ ID NO 15] and U937 mRNA as a template. A BamHI restriction site was incorporated into the 5TEL primer, and a Sal I restriction site was incorporated into the 3TEL primer. The regions encompassing the kinase domain of JAK2 (nucleotides 2994-3914; JAK2F 5′-ACGC GTCGACGGTGCCTTTGAAGACCGGGAT-3′ [SEQ ID NO 16]; JAK2R 5′-ATAGTTTAGCGGCCGCTCAGAATGAAGGTCATTT-3′) [SEQ ID NO 17] and JAK3 (nucleotides 2520-3469; JAK3F 5′-GAAGTCGACTATGCCTGCCAAGACCCCACGATCTT-3′) [SEQ ID NO 18] were generated by PCR using Taq DNA polymerase (Gibco/BRL) and U937 mRNA as a template. A Sal I restriction site was incorporated into the forward primer of JAK2 and JAK3, a Not I site was incorporated into the JAK2 reverse primer and a Xba I site was added to the reverse primer of JAK3.
A TEL/Jak2 fusion was generated by digestion of the TELPCR product with BamH I/Sal I restriction enzymes, digestion of the JAK2 PCR product with Sal I/Not I restriction enzymes, followed by ligation and subcloning of the ligation product into the mammalian expression Vector pTRE 2 (Clontech), which was prepared by digestion with BamH I-Not I restriction enzymes, to give the TEL/Jak2 fusion plasmid pTELJAK2.
(§6) The growth factor dependant myelomonocytic cell line BaF3 bearing the pTET-off plasmid (Clontech) was transfected with either pTELJAK2 or pTELJAK3, and the transfected cells were selected for growth-factor independent cell growth. The BaF3 wild-type cells were cultured in DMEM containing 10% FCS, 10% WEHI 3B conditioned medium. The BaF3 TELJAK cells ([…]) were cultured in DMEM 10% Tet-System Approved FBS (without WEHI 3B conditioned medium).
(§7) Cell suspensions were prepared by harvesting cells from culture. (the cells used in this test were in late log phase growth with high viability.) Cells were diluted in the appropriate growth medium, as described above, to 1.1× final concentration (from 50,000 cell/mL to 200,000 cell/mL, depending on cell line).
(§8) Compounds to be tested were added (10 μL, 10× final concentration) to a flat bottomed 96-well plate. The cellular suspension (90 μL per well) was then added, and the plate incubated for 40 hr at 37° C., 5% CO2. Alamar Blue 10 μL per well was added and the plates returned to the incubator for a further 4-6 hours. The plates were then read at 544 nm.

A further test addresses T2, human JAK3 (Homo sapiens, UniProt P52333).
T2 construct: The kinase domain of human JAK3 was amplified; GST (N); made in house; host or cells: Sf9 (Spodoptera frugiperda) insect cells, baculovirus
As to the kind of experiment: JAK3 kinase enzyme assay (Alphascreen). It is filed as biochemical. To be noted: 80 or 625 um ATP. On the procedure: as §1
The kinase domain of human JAK3 was amplified from U937mRNA using the polymerase chain reaction with the following primers: […]
The JAK3 PCR products were cloned into the pDest20 destination expression vector (Gibco). The JAK3 plasmid was then transformed into competent DH10Bac cells (Gibco), and the recombinant baculovirus was prepared via Sf9 insect cell transfection.
as §2, §3

A further test has as its system BafT_J3. The experiment in a line: Cellular screening, BaF3 TEL:JAK3 cells (Alamar Blue). It is filed as cell-based. To be noted: Mus musculus, 40 hr incubation. On the procedure: as §4, §5
The TEL/Jak3 fusion was prepared by ligation of the JAK3 Sal I/Not I cleaved kinase domain PCR product with the BamH I/Sal I restriction digested TEL product, followed by ligation of the ligation product into the BamH I/Not I digested pTRE2, to give the TEL/Jak3 fusion plasmid pTELJAK3.
as §6, §7, §8
(In general: The colour change of resazurin is a common sign of viable cells or microbes.)

The test system of the next test is CTLL2. As to the kind of experiment: Cellular screening, CTLL2 cells (Alamar Blue). In kind it is cell-based. The note with it: Mus musculus, CTLL-2, 40 hr incubation. On the procedure: as §4, §7, §8
The next test deals with BAF3wt. The experiment in a line: Cellular screening, BaF3 wild-type cells (Alamar Blue). To be noted: Mus musculus, 40 hr incubation. In kind it is cell-based. Here is the method:
as §4, §6, §7, §8

T2 sequence (P52333 822-1111 limits assumed): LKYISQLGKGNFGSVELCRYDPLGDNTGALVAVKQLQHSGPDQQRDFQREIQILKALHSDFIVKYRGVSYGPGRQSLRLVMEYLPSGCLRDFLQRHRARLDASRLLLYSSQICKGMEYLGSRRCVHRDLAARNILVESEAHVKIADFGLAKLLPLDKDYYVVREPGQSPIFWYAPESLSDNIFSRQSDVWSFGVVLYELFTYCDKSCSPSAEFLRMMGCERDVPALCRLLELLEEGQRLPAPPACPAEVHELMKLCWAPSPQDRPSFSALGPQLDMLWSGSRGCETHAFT
T1 sequence (O60674 849-1124 limits assumed): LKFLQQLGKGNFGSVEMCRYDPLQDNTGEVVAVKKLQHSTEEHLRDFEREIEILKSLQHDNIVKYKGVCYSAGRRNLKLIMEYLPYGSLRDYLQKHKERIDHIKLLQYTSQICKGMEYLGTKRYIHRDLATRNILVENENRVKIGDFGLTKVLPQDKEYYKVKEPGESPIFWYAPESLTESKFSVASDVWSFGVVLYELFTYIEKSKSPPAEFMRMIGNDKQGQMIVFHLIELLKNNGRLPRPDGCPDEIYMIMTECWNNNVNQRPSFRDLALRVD

The IC50 is the concentration that inhibits the measured activity by half. Consider `COc1ncccc1-c1csc2cnc(Nc3ccc(N4CCOCC4)cc3)nc12` [Compound 45, 7-(2-methoxypyridin-3-yl)-N-(4-morpholinophenyl)thieno[3,2-d]pyrimidin-2-amine], for which the IC50 against human JAK2 was below 0.1 µM; in the test with BafT_J2, below 1 µM; against human JAK3, below 0.1 µM; in the test on BafT_J3 it was below 1 µM; with CTLL2, below 1 µM; in the test with BAF3wt, below 1 µM.
Take `COc1ccc(Nc2ncc3scc(-c4cccnc4OC)c3n2)cc1OC` [Compound 52, N-(3,4-dimethoxyphenyl)-7-(2-methoxypyridin-3-yl)thieno[3,2-d]pyrimidin-2-amine]: the IC50 is below 0.1 µM against human JAK2; below 1 µM with BafT_J2; below 0.1 µM at human JAK3; below 1 µM in the test on BafT_J3; below 1 µM with CTLL2; below 1 µM in the test on BAF3wt.
As for `COc1ccc(-c2csc3cnc(Nc4ccc(OC)c(OC)c4)nc23)c(OC)n1` [Compound 55, N-(3,4-dimethoxyphenyl)-7-(2,6-dimethoxypyridin-3-yl)thieno[3,2-d]pyrimidin-2-amine], the IC50 was below 0.1 µM against human JAK2; below 5 µM in the test with BafT_J2; below 0.1 µM on human JAK3; below 5 µM in the test on BafT_J3; below 5 µM in the test on CTLL2; below 5 µM in the test on BAF3wt.
Consider `COc1ncc(-c2csc3cnc(Nc4ccc(OC)c(OC)c4)nc23)c(OC)n1` [Compound 56, N-(3,4-dimethoxyphenyl)-7-(2,4-dimethoxypyrimidin-5-yl)thieno[3,2-d]pyrimidin-2-amine], for which the IC50 against human JAK2 is below 0.1 µM; with BafT_J2, below 5 µM; against human JAK3, below 0.1 µM; in the test with BafT_J3, below 5 µM; with CTLL2, below 5 µM; with BAF3wt, below 5 µM.
Consider `CC(C)(C)NS(=O)(=O)c1cccc(-c2csc3cnc(Nc4ccc(CN5CCOCC5)cc4)nc23)c1` [Compound 58, N-tert-butyl-3-(2-(4-(morpholinomethyl)phenylamino)thieno[3,2-d]pyrimidin-7-yl)benzenesulfonamide], for which the IC50 at human JAK2 is below 0.1 µM; in the test with BafT_J2, below 1 µM; against human JAK3, below 0.5 µM; in the test with BafT_J3 it was below 1 µM; in the test with CTLL2 it was below 1 µM; with BAF3wt, below 1 µM.
Consider `CC(=O)Nc1cccc(-c2csc3cnc(Nc4ccc(OCCN5CCCC5)cc4)nc23)c1` [Compound 62, N-(3-(2-(4-(2-(pyrrolidin-1-yl)ethoxy)phenylamino)thieno[3,2-d]pyrimidin-7-yl)phenyl)acetamide], for which the IC50 at human JAK2 is below 0.1 µM; with BafT_J2 it was below 1 µM; on human JAK3, below 0.1 µM; in the test with BafT_J3 it was below 1 µM; in the test on CTLL2, below 1 µM; with BAF3wt, below 1 µM.
As to `N#CCNC(=O)c1cccc(-c2csc3cnc(Nc4ccc(N5CCOCC5)cc4)nc23)c1` [Compound 63, N-(cyanomethyl)-3-(2-(4-morpholinophenylamino)thieno[3,2-d]pyrimidin-7-yl)benzamide], the IC50 is below 0.1 µM on human JAK2; below 1 µM in the test with BafT_J2; below 0.1 µM at human JAK3; below 1 µM in the test with BafT_J3; below 1 µM with CTLL2; below 1 µM in the test with BAF3wt.
Regarding `CCN1CCC(Oc2ccc(Nc3ncc4scc(-c5cccc(S(=O)(=O)NC(C)(C)C)c5)c4n3)cc2)CC1` [Compound 65, N-tert-butyl-3-(2-(4-(1-ethylpiperidin-4-yloxy)phenylamino)thieno[3,2-d]pyrimidin-7-yl)benzenesulfonamide], the IC50 against human JAK2 was below 0.1 µM; with BafT_J2, below 1 µM; against human JAK3, below 0.1 µM; in the test with BafT_J3 it was below 1 µM; in the test with CTLL2, below 5 µM; in the test with BAF3wt, below 5 µM.
Consider `CCN1CCN(Cc2ccc(Nc3ncc4scc(-c5cccc(S(=O)(=O)NC(C)(C)C)c5)c4n3)cc2)CC1` [Compound 68, N-tert-butyl-3-(2-(4-((4-ethylpiperazin-1-yl)methyl)phenylamino)thieno[3,2-d]pyrimidin-7-yl)benzenesulfonamide], for which the IC50 against human JAK2 is below 0.1 µM; in the test on BafT_J2, below 1 µM; at human JAK3, below 0.5 µM; in the test with BafT_J3 it was below 1 µM; in the test with CTLL2, below 5 µM; with BAF3wt, below 1 µM.
As for `N#CCNC(=O)c1cccc(-c2csc3cnc(Nc4ccc(CN5CCOCC5)cc4)nc23)c1` [Compound 70, N-(cyanomethyl)-3-(2-(4-(morpholinomethyl)phenylamino)thieno[3,2-d]pyrimidin-7-yl)benzamide], the IC50 against human JAK2 is below 0.1 µM; in the test with BafT_J2 it was below 1 µM; against human JAK3 it was below 0.1 µM; in the test on BafT_J3 it was below 1 µM; in the test on CTLL2, below 5 µM; with BAF3wt, below 1 µM.
For `CC(C)(C)NS(=O)(=O)c1cccc(-c2csc3cnc(Nc4ccc(OCCN5CCCC5)cc4)nc23)c1` [Compound 71, N-tert-butyl-3-(2-(4-(2-(pyrrolidin-1-yl)ethoxy)phenylamino)thieno[3,2-d]pyrimidin-7-yl)benzenesulfonamide], the IC50 on human JAK2 was below 0.1 µM; with BafT_J2, below 1 µM; against human JAK3, below 0.1 µM; in the test on BafT_J3, below 1 µM; in the test with CTLL2, below 5 µM; in the test on BAF3wt, below 5 µM.
Regarding `CC(C)(C)OC(=O)NCc1cccc(-c2csc3cnc(Nc4ccc(OCCN5CCCC5)cc4)nc23)c1` [Compound 72], the 50% inhibitory concentration (IC50) was below 0.1 µM on human JAK2; below 1 µM in the test on BafT_J2; below 0.1 µM against human JAK3; below 1 µM in the test on BafT_J3; below 1 µM with CTLL2; below 5 µM with BAF3wt.
